Laboratory results: publication PMC7558282, “The Anticancer Activity for the Bumetanide-Based Analogs via Targeting the Tumor-Associated Membrane-Bound Human Carbonic Anhydrase-IX Enzyme” (Pharmaceuticals, 2020)

Key:
A-498 cells = assay: Annexin V/PI apoptotic assay in A-498; format: cell-based, human; conditions: 6 µM, 48 h; control 1.3%
Procedure: The efficient antiproliferative activity of compound 9c on the kidney carcinoma A-498 cell line (Table 2) prompted a further investigation of its mechanistic growth inhibitory action. Thus, the impact of bumetanide analog 9c at 6 µM for 48 h on cell cycle distribution and induction of apoptosis in A-498 cells was next explored. […] Analysis of apoptosis was performed to determine the mode of cell death induced by 9c in A-498 cells. Compound 9c induced both early and late apoptosis in A-498 cells at 6 µM when compared to the untreated control cells (p < 0.01 and p < 0.001, respectively) (Figure 5A). […]
Figure 5 Compound 9c potently induces apoptosis in kidney carcinoma cell line A-498 cells (Annexin V/PI FACS). (A) Effect of compound 9c in A-498 cells analyzed by flow cytometry after double staining of the cells with Annexin-V-FITC and PI. […] (B) Quantitative analysis of apoptosis. […]
A-498 Cells were seeded at a density of 1 × 10^5 cells/well in 24-well plates and treated with compound 9c (6 µM) for 48 h. […] The DNA content of cells (10,000 cells/experimental group) was analyzed by flow cytometer at 488 nm using a FACSCalibur flow cytometer (BD Biosciences, San Jose, CA, USA) and all data were recorded and analyzed using the CellQuest Software (Becton-Dickinson Biosciences, San Jose, CA, USA). […]

[1] = tested on: A-498 kidney carcinoma cells; assay: MTT cell proliferation assay, A-498; format: cell-based, human; conditions: Homo sapiens, A498, 48 h, ±SEM
Procedure: (§1) Cells were cultured in 96-well plate, at cell density of 1.2–1.8 × 10^4 cells/well, using Dulbecco’s Modified Eagle Medium (Invitrogen^TM, Carlsbad, CA, USA) supplemented with 10% (w/v) fetal bovine serum (Hyclone^TM, Marlborough, MA, USA), 10 ug/mL of insulin (Sigma-Aldrich^TM, St. Louis, MO, USA), and 1% (w/v) penicillin-streptomycin (Sigma-Aldrich^TM, St. Louis, MO, USA). Following 24h-incubation period under 5% CO2 at 37 °C, cells were treated with compounds’ serial concentrations (0.1 µM–100 µM) in DMSO, where the DMSO final concentration in the culture medium never exceeded 0.2% (v/v). Subsequently, the treated microplates were incubated for 48 h at 5% CO2/37 °C prior to examination under the inverted microscope and proceeding for the MTT assay. The culture medium was discarded and 100 µL of complete medium comprising 5 mg/mL MTT dye were dispensed within every well, then plates were reincubated for 2 h at 5% CO2/37 °C. […] Color intensity within each well was measured spectrophotometrically using the ROBONIK-P2000® ELISA microplate reader (Bio-Tek^TM, Winooski, VT, USA) at 450 nm while subtracting the background absorbance of multi well plates at 690 nm. The experiment was conducted in triplicates and IC50 values were estimated through linear regression between the logarithm-transformed compound concentrations and corresponding % cell viability = (mean absorbance in test wells/mean absorbance in control wells) ∗ 100, having the response variable slope (four parameters) for all samples.

[2] = tested on: SCaBER bladder squamous cell carcinoma cells; assay: MTT cell proliferation assay, SCaBER; format: cell-based; conditions: Homo sapiens, 48 h, ±SEM
Procedure: as §1

## CCCCNc1cc(-c2n[nH]c(=S)n2-c2ccc(Br)cc2)cc(S(N)(=O)=O)c1Oc1ccccc1 [Compound 9c]
A-498 cells
  Annexin V-staining positive cells (total apoptotic cells): 25.5%
[1]
  IC50: 5.07 ± 0.11 µM
[2]
  IC50: 8.8 ± 1.9 µM
